The text below walks through data of patent US12202835B2, “Substituted aromatic ring-linked dioxinoquinazolines and dioxinoquinolines as kinase inhibitors” (BEIJING SCITECH-MQ PHARMACEUTICALS LIMITED, priority 2018, dated 2025).

SMILES strings stand for the structures. Bounds are passed on as bounds.

The assay addresses TRKA kinase (Homo sapiens (Human), UniProt P04629). Kind of assay: Assay of small molecular compounds for inhibiting the activity of TRKA kinase (LANCE TR-FRET). The assay is classed as biochemical. Here is the method: The assay of small molecular compounds for inhibiting the activity of TRKA kinase is based on the LANCE TR-FRET technology of Perkin Elmer Inc., and the assay method is as follows: • 1. […] 2.5 μL of the gradient-diluted compounds were taken with a transfer pipette to a 384-well plate. • 3. Addition of enzyme: 5 μL of 2×TRKA kinase solution (with a concentration of 2 nM) was taken with a transfer pipette to the corresponding reaction well of the 384-well plate, mixed well and pre-reacted at room temperature for 5 minutes. • 4. 2.5 μL 4× Ultra ULight-labeled TK Peptide (with a concentration of 400 nM)/ATP (with a concentration of 40 μM) mixture was taken with a transfer pipette to the corresponding reaction well of the 384-well plate. • 5. Negative control: 2.5 μL/well 4× substrate/ATP mixture and 7.5 μL 1× Kinase Assay Buffer were added to the wells of the 384-well plate.
Positive control: 2.5 μL/well 4× substrate/ATP mixture, 2.5 μL/well 1× Kinase Assay Buffer containing 4% DMSO, and 5 μL/well 2×TRKA kinase solution were added to the 384-well plate. The final concentration of DMSO in the reaction system was 1%. • 6. The mixture was mixed well and then centrifuged and reacted at room temperature in dark for 60 min. • 7. Termination of the enzymatic reaction: 5 μL of 4× stop solution was taken with a transfer pipette to the wells of the 384-well plate, mixed and then centrifuged, and reacted at room temperature for 5 min. • 8. Development of the reaction: 5 μL of 4× detection solution was taken with a transfer pipette to the wells of the 384-well plate for color development, and the mixture was mixed and then centrifuged and reacted at room temperature for 60 min. • 9. The 384-well plate was placed into the Envision plate reader and the signal was detected using the appropriate program.
(In general: Time-resolved FRET reads energy transfer from a long-lived donor to a nearby acceptor.)

For orientation: IC50 means the concentration needed to halve the response being measured. A lower IC50 goes with greater potency in that assay.

Chain of TRKA kinase (P04629 33-796): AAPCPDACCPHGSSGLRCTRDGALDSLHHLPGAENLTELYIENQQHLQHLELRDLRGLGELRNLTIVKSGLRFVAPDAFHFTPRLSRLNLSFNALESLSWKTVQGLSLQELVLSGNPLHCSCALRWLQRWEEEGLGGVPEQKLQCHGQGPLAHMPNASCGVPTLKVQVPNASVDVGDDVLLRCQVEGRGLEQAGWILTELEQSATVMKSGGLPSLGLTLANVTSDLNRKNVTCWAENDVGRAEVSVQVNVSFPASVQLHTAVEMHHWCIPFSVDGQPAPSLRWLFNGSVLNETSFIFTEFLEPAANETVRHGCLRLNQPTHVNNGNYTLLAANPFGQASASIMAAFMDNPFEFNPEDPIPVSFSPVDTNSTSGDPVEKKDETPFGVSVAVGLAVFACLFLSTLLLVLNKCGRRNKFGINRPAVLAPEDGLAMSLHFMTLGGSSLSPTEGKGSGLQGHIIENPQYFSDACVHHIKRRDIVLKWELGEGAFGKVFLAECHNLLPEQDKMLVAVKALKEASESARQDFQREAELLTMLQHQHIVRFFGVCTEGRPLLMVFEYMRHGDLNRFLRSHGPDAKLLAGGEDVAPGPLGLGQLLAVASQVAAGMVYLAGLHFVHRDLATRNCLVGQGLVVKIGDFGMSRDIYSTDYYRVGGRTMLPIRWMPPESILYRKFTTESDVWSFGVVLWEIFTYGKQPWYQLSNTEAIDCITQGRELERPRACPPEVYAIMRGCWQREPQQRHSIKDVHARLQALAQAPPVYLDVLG

Compound `CCOc1ccn(-c2ccc(F)cc2)c(=O)c1C(=O)Nc1ccc(Oc2ccnc3ccc4c(c23)OCCO4)c(F)c1` [Example 168, N-(4-((2,3-dihydro-[1,4]dioxino[2,3-f]quinolin-10-yl)oxy)-3-fluorophenyl)-1-(4-fluorophenyl)-4-ethoxy-2-oxo-1,2-dihydropyridine-3-carboxamide] had an IC50 of 50 to 500 nM.
The figure for `CCn1cc(C(=O)Nc2ccc(Oc3ccnc4ccc5c(c34)OCCO5)c(F)c2)c(=O)n(-c2ccc(F)cc2)c1=O` [Example 161, N-(4-((2,3-dihydro-[1,4]dioxino[2,3-f]quinolin-10-yl)oxy)-3-fluorophenyl)-3-(4-fluorophenyl)-1-ethyl-2,4-dioxo-1,2,3,4-tetrahydropyrimidine-5-carboxamide] is 50 to 500 nM; for `Cn1cc(C(=O)Nc2cc(F)c(Oc3ccnc4ccc5c(c34)OCCO5)cc2Cl)c(=O)n(-c2ccc(F)cc2)c1=O` [Example 173, N-(2-chloro-4-((2,3-dihydro-[1,4]dioxino[2,3-f]quinolin-10-yl)oxy)-5-fluorophenyl)-3-(4-fluorophenyl)-1-methyl-2,4-dioxo-1,2,3,4-tetrahydropyrimidine-5-carboxamide] it is 50 to 500 nM.
Then `Cn1cc(C(=O)Nc2ccc(Oc3ccnc4ccc5c(c34)OCCO5)c(F)c2)c(=O)n(-c2ccc(F)cc2)c1=O` [Example 160, N-(4-((2,3-dihydro-[1,4]dioxino[2,3-f]quinolin-10-yl)oxy)-3-fluorophenyl)-3-(4-fluorophenyl)-1-methyl-2,4-dioxo-1,2,3,4-tetrahydropyrimidine-5-carboxamide], with 50 to 500 nM; and `CCn1cc(C(=O)Nc2ccc(Oc3ccnc4ccc5c(c34)OCCO5)cc2F)c(=O)n(-c2ccc(F)cc2)c1=O` [Example 163, N-(4-((2,3-dihydro-[1,4]dioxino[2,3-f]quinolin-10-yl)oxy)-2-fluorophenyl)-3-(4-fluorophenyl)-1-ethyl-2,4-dioxo-1,2,3,4-tetrahydropyrimidine-5-carboxamide], with 50 to 500 nM; and `CCn1cc(C(=O)Nc2cc(F)c(Oc3ccnc4ccc5c(c34)OCCO5)cc2Cl)c(=O)n(-c2ccc(F)cc2)c1=O` [Example 174, N-(2-chloro-4-((2,3-dihydro-[1,4]dioxino[2,3-f]quinolin-10-yl)oxy)-5-fluorophenyl)-3-(4-fluorophenyl)-1-ethyl-2,4-dioxo-1,2,3,4-tetrahydropyrimidine-5-carboxamide], with less than 50 nM.
Turning to `CCn1cc(C(=O)Nc2cc(F)c(Oc3ccnc4ccc5c(c34)OCCO5)cc2C)c(=O)n(-c2ccc(F)cc2)c1=O` [Example 176, N-(4-((2,3-dihydro-[1,4]dioxino[2,3-f]quinolin-10-yl)oxy)-5-fluoro-2-methylphenyl)-3-(4-fluorophenyl)-1-ethyl-2,4-dioxo-1,2,3,4-tetrahydropyrimidine-5-carboxamide], the IC50 is 50 to 500 nM.
